Measurements taken from US5332811A, “Etopside analogs” (priority 1991, dated 1994).
Like-named read-outs stand apart in the source and are kept apart here.

How the values were obtained:
[1] = target: Human DNA topoisomerase II; assay: DNA topoisomerase II assay (P4 unknotting reaction); assay type: biochemical; conditions: read-out: Inhibition of DNA Topoisomerase II Activity ID50
Protocol: (§1) The compounds of the present invention were tested for their degree of inhibitory activity on human type II DNA topoisomerase, their effect on the formation of protein-linked DNA breakage, and their cytotoxicity. […] For a description of the assays used with respect to the compounds listed in Tables 1 to 5 see Thurston, L.S., Irie, H., Tani, S., Han, F. S., Liu, Z. C., Cheng, Y.C., and Lee, K. H., Antitumor Agents 78. Inhibition of Human DNA Topoisomerase II by Podophyllotoxin and Peltatin Analogues, J. Med. Chem. 29, 1547 (1986), and the references cited therein, herein incorporated by reference.
Human DNA topoisomerase II was isolated from peripheral blast cells of a patient with acute leukemia. The isolation procedure is described in Thurston, L., Imakura, Y., Haruna, M., Li, Z. C., Liu, S. Y., and Lee, K. H., J. Med. Chem., 31, […] (1988) and is a partial combination of the procedure described in Goto, T., Laiapia, P. and Wang, J., J. Biol. Chem., 259, 10422 (1984) and Halligan, B., Edwards, K., and Liu, L., J. Biol. Chem., 260, 2475 (1985) which are herein specifically incorporated by reference.
Drugs were dissolved in Me2 SO at a concentration of 20 mM as the stock solution and diluted before use with water to the desired concentration of each drug.
The P4 unknotting reaction was a modification of the procedure described by Hseih, T., J. Biol. Chem., 258, 8413 (1985), which is herein specifically incorporated by reference.
The reaction mixture (20 μL), which contained 50 mM HEPES, pH 7.0, 50 mM KCI, 100 mM NaCl, 0.1 mM EDTA, 10 mM MgCl2, 1.0 mM ATP, 50 μg/mL bovine serum albumin, 0.4 μg P4knotted DNA, and enzyme, was incubated with or without drugs.
The reaction mixture was incubated at 37° C. for 30 min and terminated by adding 5.0 μl of a stop solution (2% sodium dodecyl sulfate, 20% glycerol, 0.05% bromophenol blue). These samples were loaded onto a 1% agarose gel and electrophoresed at 55 V overnight with an electrophoresis buffer that contained 90 mM Tris-boric acid, pH 8.3, and 2.5 mM EDTA. At completion, the gel was stained in 0.5 μg/mL of ethidium bromide. Then a photograph was taken of the DNA bands visualized with fluorescence induced by a long-wavelength UV lamp. […]

KB cells = assay: Cytotoxicity: 50% reduction in cell number of KB cells after three day incubation; assay type: cell-based; conditions: Homo sapiens, 72 h, read-out: Cytotoxicity ID50 KB
Protocol: as §1, with “cytotoxicity. The inhibitory activity for compounds of the present invention correlated with the ability of the compounds to cause DNA strand breakage.” for “cytotoxicity.”
in cell number after three day incubation.

[2] = Table 1, based on degree of inhibition at 25, 50, and 100 μM
[3] = Table 1, KB cells, three day incubation
[4] = Table 2, based on degree of inhibition at 10, 25, 50 and 100 μM
[5] = Table 2, KB cells, three day incubation
[6] = Table 3, based on degree of inhibition at 20, 25, 50 and 100 μM
[7] = Table 3, KB cells, three day incubation
[8] = Table 4, based on degree of inhibition at 10, 25, 50 and 100 μM
[9] = Table 4, KB cells, three day incubation

In the case of COc1cc(C2c3cc4c(cc3C(NCc3ccccc3)C3COC(=O)C23)OCO4)cc(OC)c1O (stereo not drawn) [Example 3, 4'-O-Demethyl-4β-benzylamino-4-desoxypodophyllotoxin], the IC50 [1, 2] is reported as 25 µM and the IC50 (KB cells; [3]) is reported as 2.2 µM.

COc1cc(C2c3cc4c(cc3C(NCc3ccc([N+](=O)[O-])cc3)C3COC(=O)C23)OCO4)cc(OC)c1O (stereo not drawn) [Example 4, 4'-O-Demethyl-4β-(4"-nitrobenzylamino)-4-desoxypodophyllotoxin] showed an IC50 [1, 2] of 50 µM and an IC50 (KB cells; [3]) of 0.4 µM.

In the case of COc1cc(C2c3cc4c(cc3C(NCc3cccc([N+](=O)[O-])c3)C3COC(=O)C23)OCO4)cc(OC)c1O (stereo not drawn) [Example 5, 4'-O-Demethyl-4β-(3"-nitrobenzylamino)-4-desoxypodophyllotoxin], the IC50 [1, 2] is reported as 25 µM and the IC50 (KB cells; [3]) is reported as < 0.4 µM.

Molecule COc1cc(C2c3cc4c(cc3C(NCc3ccccc3[N+](=O)[O-])C3COC(=O)C23)OCO4)cc(OC)c1O (stereo not drawn) [Example 6, 4'-O-Demethyl-4β-(2"-nitrobenzylamino)-4-desoxypodophyllotoxin] has an IC50 [1, 2] of 50 µM and an IC50 (KB cells; [3]) of 1.8 µM.

For COc1cc(C2c3cc4c(cc3C(NCc3ccccc3F)C3COC(=O)C23)OCO4)cc(OC)c1O (stereo not drawn) [Example 7, 4-O-Demethyl-4β-(2"-fluorobenzylamino)-4-desoxypodophyllotoxin], the IC50 [1, 2] was 100 µM and the IC50 (KB cells; [3]) was 1.9 µM.

With COc1cc(C2c3cc4c(cc3C(NCc3ccc(F)cc3)C3COC(=O)C23)OCO4)cc(OC)c1O (stereo not drawn) [Example 9, 4'-O-Demethyl-4β-(4"-fluorobenzylamino)-4-desoxypodophyllotoxin] the IC50 [1, 2] was 50 µM and the IC50 (KB cells; [3]) was > 4 µM.

Work on COc1cc(CNC2c3cc4c(cc3C(c3cc(OC)c(O)c(OC)c3)C3C(=O)OCC23)OCO4)cc(OC)c1 (stereo not drawn) [Example 12, 4'-O-Demethyl-4β-(3",5"-dimethoxybenzylamino)-4-desoxypodophyllotoxin] yielded an IC50 [1, 2] of 100 µM and an IC50 (KB cells; [3]) of 1.7 µM.

In the case of COc1cc(C2c3cc4c(cc3C(NCc3cccc(N)c3)C3COC(=O)C23)OCO4)cc(OC)c1O (stereo not drawn) [Example 13, 4'-O-Demethyl-4β-(3"-aminobenzylamino)-4-desoxypodophyllotoxin], the IC50 [1, 2] is reported as 25 µM and the IC50 (KB cells; [3]) is reported as < 0.4 µM.

With COc1cc(C2c3cc4c(cc3C(NCc3ccccc3N)C3COC(=O)C23)OCO4)cc(OC)c1O (stereo not shown) [Example 14] the IC50 [1, 2] was 25 µM and the IC50 (KB cells; [3]) was < 0.4 µM.

With COc1cc(C2c3cc4c(cc3C(Nc3ccccc3)C3COC(=O)C23)OCO4)cc(O)c1O (stereo not drawn) [Example 17, 3',4'-O-Didemethyl-4β-anilino-4-desoxypodophyllotoxin] the IC50 [1, 4] was 25 µM and the IC50 (KB cells; [5]) was 1.7 µM.

In the case of COc1cc(C2c3cc4c(cc3C(Nc3ccc(F)cc3)C3COC(=O)C23)OCO4)cc(O)c1O (stereo not drawn) [Example 18, 3',4'-O-didemethyl-4β-(4"-floroanilino)-4-desoxypodophyllotoxin], the IC50 [1, 4] is reported as 10 µM and the IC50 (KB cells; [5]) is reported as 3 µM.

COc1cc(C2c3cc4c(cc3C(Nc3cccc(O)c3)C3COC(=O)C23)OCO4)cc(O)c1O (stereo not drawn) [Example 19, 3',4'-O-Didemethyl-4β-(3"-hydroxyanilino)-4-desoxypodophyllotoxin] was tested, and the IC50 [1, 4] was 10 µM and the IC50 (KB cells; [5]) was 1.6 µM.

In the case of COc1cc(C2c3cc4c(cc3C(Nc3ccc5c(c3)OCCO5)C3COC(=O)C23)OCO4)cc(O)c1O (stereo not shown) [Example 20], the IC50 [1, 4] is reported as 10 µM and the IC50 (KB cells; [5]) is reported as 2.3 µM.

COC(=O)c1cccc(N[C@@H]2c3cc4c(cc3[C@@H](c3cc(O)c(O)c(OC)c3)[C@H]3C(=O)OC[C@@H]32)OCO4)c1 [Example 21, 3'.4'-O-Didemethyl-4β-(3"-methoxycarbonylanilino)-4-desoxypodophyllotoxin] gave an IC50 [1, 4] of 1 µM and an IC50 (KB cells; [5]) of 1.9 µM.

In the case of COc1cc(C2c3cc4c(cc3C(Nc3ccc(C#N)cc3)C3COC(=O)C23)OCO4)cc(O)c1O (stereo not drawn) [Example 22, 3'.4'-O-Didemethyl-4β-(4"-cyanoanilino)-4-desoxypodophyllotoxin], the IC50 [1, 4] is reported as 10 µM and the IC50 (KB cells; [5]) is reported as 1.5 µM.

In the case of COc1cc([C@@H]2c3cc(O)c(O)cc3[C@@H](Nc3ccccc3)[C@H]3COC(=O)[C@H]23)cc(OC)c1O [Example 26, 6,7-O-Demethylene-4'-O-demethyl-4β-anilino-4-desoxypophyllotoxin], the IC50 [1, 6] is reported as 25 µM and the IC50 (KB cells; KB) is reported as > 1 µM.

For COc1cc([C@@H]2c3cc(O)c(O)cc3[C@@H](Nc3ccc([N+](=O)[O-])cc3)[C@H]3COC(=O)[C@H]23)cc(OC)c1O [Example 27, 6,7-O-Demethylene-4'-O-demethyl-4β-(4"-nitroanilino)-4-desoxypodophyllotoxin], the IC50 [1, 6] was 20 µM and the IC50 (KB cells; [7]) was 0.76 µM.

Molecule CCOC(=O)c1ccc(N[C@@H]2c3cc(O)c(O)cc3[C@@H](c3cc(OC)c(O)c(OC)c3)[C@H]3C(=O)OC[C@@H]32)cc1 [Example 28, 6,7-O-Demethylene-4'-O-demethyl-4β-[4"-(ethoxycarbonyl)anilino]-4-desoxypodophyllotoxin] has an IC50 [1, 6] of 20 µM and an IC50 (KB cells; [7]) of 0.78 µM.

Work on COc1cc([C@@H]2c3cc(O)c(O)cc3[C@@H](Nc3ccc(C#N)cc3)[C@H]3COC(=O)[C@H]23)cc(OC)c1O [Example 29, 6,7-O-Demethylene-4'-O-demethyl-4β-(cyanoanilino)-4-deoxypodophyllotoxin] yielded an IC50 [1, 6] of 20 µM and an IC50 (KB cells; [7]) of 1 µM.

With COc1cc([C@@H]2c3cc(O)c(O)cc3[C@@H](Nc3ccc(F)cc3)[C@H]3COC(=O)[C@H]23)cc(OC)c1O [Example 30, 6,7-O-Demethylene-4'-O-demethyl-4β-(fluoroanilino)-4-desoxypodophyllotoxin] the IC50 [1, 6] was 25 µM and the IC50 (KB cells; [7]) was > 1 µM.

Work on COc1cc2c(cc1OC)[C@@H](Nc1ccc(F)cc1)[C@H]1COC(=O)[C@@H]1[C@@H]2c1cc(OC)c(O)c(OC)c1 [Example 31, 6,7-O-demethylene-6,7-O-dimethyl-4'-O-demethyl-4β-(4"-fluoroanilino)-4-desoxypodophyllotoxin] yielded an IC50 [1, 6] of 50 µM and an IC50 (KB cells; [7]) of 0.4 µM.

In the case of COc1cc2c(cc1OC)[C@@H](Nc1ccc(C#N)cc1)[C@H]1COC(=O)[C@@H]1[C@@H]2c1cc(OC)c(O)c(OC)c1 [Example 32, 6,7-O-demethylene-6,7-O-dimethyl-4'-O-demethyl-4β-(4"-cyanoanilino)-4-desoxypodophyllotoxin], the IC50 [1, 6] is reported as 50 µM and the IC50 (KB cells; [7]) is reported as < 0.4 µM.

CCOC(=O)c1ccc(N[C@@H]2c3cc(OC)c(OC)cc3[C@@H](c3cc(OC)c(O)c(OC)c3)[C@H]3C(=O)OC[C@@H]32)cc1 [Example 33, 6,7-O-demethylene-6,7-O-dimethyl-4'-O-demethyl-4β-[4"-(ethoxycarbonyl)anilino]-4-desoxypodophyllotoxin] was tested, and the IC50 [1, 6] was 100 µM and the IC50 (KB cells; [7]) was < 0.4 µM.

COc1cc([C@@H]2c3cc4c(cc3[C@@H](NC(=O)c3ccccc3)[C@H]3COC(=O)[C@H]23)OCO4)cc(OC)c1O [Example 34, 4'-O-Demethyl-4β-(benzoylamino)-4-desoxypodophyllotoxin] was tested, and the IC50 [1, 8] was > 50 µM and the IC50 (KB cells; [9]) was 0.64 µM.

In the case of COc1cc([C@@H]2c3cc4c(cc3[C@@H](NC(=O)c3ccccc3O)[C@H]3COC(=O)[C@H]23)OCO4)cc(OC)c1O [Example 35, 4'-O-Demethyl-4β-[(2-hydroxylbenzoyl)amino]-4-desoxypodophyllotoxin], the IC50 [1, 8] is reported as 50 µM and the IC50 (KB cells; [9]) is reported as < 1 µM.

COc1cc([C@@H]2c3cc4c(cc3[C@@H](NC(=O)c3ccc(F)cc3)[C@H]3COC(=O)[C@H]23)OCO4)cc(OC)c1O [Example 36, 4'-O-Demethyl-4β-[(4"-fluorobenzoyl)amino]-4-desoxypodophyllotoxin] gave an IC50 [1, 8] of 25 µM and an IC50 (KB cells; [9]) of 0.34 µM.
